Measurements as given in publication PMC4839570, “Novel Anthra[1,2-c][1,2,5]Thiadiazole-6,11-Diones as Promising Anticancer Lead Compounds: Biological Evaluation, Characterization & Molecular Targets Determination” (PLoS ONE, 2016).
≈ marks a conversion by molar mass, not a printed value. Where two headings read alike, the source gives them in different places.

Assays:
[1] = system: HOP-92; assay: NCI-60 cytotoxicity screen; assay type: cell-based; details: for GI50 / CC50: Homo sapiens; for CC50: read-out: LC50 (the source's name)
[2] = system: SK-OV-3; assay: JFCR-39 cytotoxicity screen; assay type: cell-based; details: for GI50 / CC50: Homo sapiens; for CC50: read-out: LC50 (the source's name)
[3] = system: ST-4; assay: JFCR-39 cytotoxicity screen; assay type: cell-based; details: for GI50 / CC50: Homo sapiens; for CC50: read-out: LC50 (the source's name)
[4] = system: NF-κB p65 subunit translocation in OVCAR-3 cells; assay: NF-κB inhibition by immunocytochemical fluorescent staining; assay type: cell-based, human; details: 5 μM
Experimental: Inhibition of NF-κB was detected according to Ataie-Kachoie et al.. Briefly, each group of tested cells were seeded on coverslips treated with HCl and ethanol, and autoclaved prior to use. Immunostaining of the p65 subunit of NF-κB was done by permeabilizing the cells with Triton […], then by treating the cells with anti-NF-κB p65 rabbit monoclonal primary antibody [E379] Abcam # ab32536, followed by Alexa Fluor® 488 Donkey anti-rabbit IgG secondary antibody Biolegend # 406416. Nuclei of cells were stained with 4',6-diamidino-2-phenylindole (DAPI). Images were acquired using fluorescence microscope. Tested cells were divided into five groups which are no treatment control, no primary antibody control, PDTC (50 μM) treated control, NSC745885 (5 μM) and NSC757963 (5 μM) treated controls.

[5] = Caco-2 permeability; assay type: in vitro ADME, human; details: human, Caco-2
Description: (§1) We tested both the absorptive (from the apical to basolateral compartments; A→BL) and secretory (from the basolateral to apical compartments; BL→A) permeabilities of our compound. We determined the amounts of compound transported at the specified time points and calculated the cumulative fractions [F (cum)] transported with respect to time according to the following equation [43]: F(cum)=∑^[CR(tk)−fCR(tk−1)].VR/CD.VD Where C is the concentration (μM), V is the volume (mL) of the receiver (R) or donor (D), tk is time point k, and f is the sample replacement factor calculated as f=(1−Vs/VR) , where VS is the volume of the sample (mL).
(§2) We determined the permeability coefficients as follows: Papp=(ΔF(cum)/Δt).(1/A).VD Where (ΔF(cum)/Δt) is the slope of the graph of F(cum) versus time (s), A is the area of the filter (cm^2), and VD is the volume of the donor compartment (mL).
(§3) We determined the active transport by calculating the uptake ratios and the intestinal efflux by calculating the efflux ratios using the following equations [8]: Uptake ratio=Papp(A→BL)/Papp(BL→A) Efflux ratio=Papp(BL→A)/Papp(A→BL) Where Papp(A→BL) is the absorptive permeability coefficient, and Papp(BL→A) is the secretory permeability coefficient.
(§4) The transport of our compounds through the Caco-2 cells was tested according to Hubatsch et al., 2007 [8]. Briefly, Caco-2 cells were seeded at a density of 2.6 × 10^5 cells/cm^2 onto Corning Transwell® polyester membrane inserts (1.2 cm^2 membrane diameter, 0.4 μm pore size, product #3460) in 12-well tissue culture plates and cultured in Dulbecco’s modified Eagle’s medium with high glucose (4500 mg/liter glucose) and L-glutamine (without pyruvate) supplemented with 10% FBS, 1% non-essential amino acids and 1% penicillin/streptomycin. Cells were incubated for at least 21 days at the specified conditions with the change of medium every two days. The TEER was measured using Millicell® ERS device for each insert after every change of medium to monitor the development of the cells monolayer. Cell monolayers with TEER values less than 300 Ω.cm^2 at the end of the maintenance period were not suitable for the experiment and discarded. The integrity of the cell monolayers were further confirmed by testing the phenol red permeability through the cells. The transport experiments were started by replacing the incubation culture media with the transport buffers with or without the tested compounds, the transport was tested in both directions (apical to basolateral and basolateral to apical). We used Hank’s balanced salt solution without phenol red as the transport medium buffered with either methanesulfonic acid (pH = 6.5) as the transport buffer in the apical compartment or buffered with HEPES and NaHCO3 (pH = 7.4) as the transport buffer in the basolateral compartment. NSC745885 was dissolved in the transport buffers with the aid of 1% DMSO to get final concentrations between 4–5 μM. Samples from the receiver compartments were withdrawn at different time intervals (0 min, 30 min, 45 min, 60 min, 75 min, 90 min, 120 min) and the amounts of transported drug were determined using the HPLC. After the transport experiments, the TEER was checked for every cell monolayer to assure that the monolayers were not compromised from the effect of the tested drug. The apparent permeabilities were calculated as mentioned in the previous section.

[6] = system: human intestinal Caco-2 cells; assay: Caco-2 permeability; assay type: in vitro ADME
Description: as §1, §2, §3, §4

[7] = system: MGH-U1R cell line; design: method as in PMID 25431950; details: MGH-U1R; cited from earlier work
[8] = system: MGH-U1 cells; design: method as in PMID 25431950; details: cited from earlier work
[9] = system: Mycobacterium tuberculosis H37Rv; assay: Antimycobacterial susceptibility, BACTEC MGIT 960 SIRE; assay type: cell-based
[10] = Fig 7, read-out: mean log10 of the GI50 values (converted)

Structure (SMILES): O=C1c2ccccc2C(=O)c2c1ccc1nsnc21 [NSC745885, anthra[1,2-c][1,2,5]thiadiazole-6,11-dione]
- GI50 [1, 10]: 2.69 µM
- GI50 ([1]; five-dose, read-out: GI50): 2.52 µM
- CC50 ([1]; five-dose): > 100 µM
- TGI ([1]; five-dose): 6.64 µM
- TGI [2]: 8.3 µM
- GI50 [2]: 2.7 µM
- CC50 [2]: 29 µM
- TGI [3]: 4.0 µM
- GI50 [3]: 2 µM
- CC50 [3]: 8 µM
- nuclear translocation of the NF-κB p65 subunit [4]: significantly capable of preventing the nuclear translocation of the NF-κB p65 subunit
- Papp A→B at 120 min ([5]; 4–5 μM, apical pH 6.5, basolateral pH 7.4, read-out: Absorptive permeability Papp(A→BL)): 31.8 ×10⁻⁶ cm/s
- Papp B→A at 120 min ([5]; 4–5 μM, apical pH 6.5, basolateral pH 7.4, read-out: Secretory permeability Papp(BL→A)): 35.4 ×10⁻⁶ cm/s
- efflux ratio at 120 min ([5]; Papp(BL→A)/Papp(A→BL)): 1.11
- Permeability ranking [6]: High; completely absorbed
- Uptake ratio ([6]; Papp(A→BL)/Papp(BL→A)): 0.898
- concentration that completely suppressed growth of the resistant cell line [7]: 2.5 µM
- concentration that inhibited the non-resistant cells [8]: 2.5 µM

Structure (SMILES): O=C1c2ccccc2C(=O)c2c1cc(Cl)c1nsnc21 [NSC757963]
- GI50 [1, 10]: 1.45 µM
- GI50 ([1]; five-dose, read-out: GI50): 1.43 µM
- CC50 ([1]; five-dose): 7.84 µM
- TGI ([1]; five-dose): 3.34 µM
- TGI [2]: 14.0 µM
- GI50 [2]: 3.2 µM
- CC50 [2]: 38 µM
- TGI [3]: 3.9 µM
- GI50 [3]: 2 µM
- CC50 [3]: 7.4 µM
- nuclear translocation of the NF-κB p65 subunit [4]: significantly capable of preventing the nuclear translocation of the NF-κB p65 subunit
- Effect on M. tuberculosis H37Rv ([9]; 1.25 μg/mL): Growth
- Effect on M. tuberculosis H37Rv ([9]; 2.5 μg/mL): Growth
- Effect on M. tuberculosis H37Rv ([9]; 5 μg/mL): Growth
- Effect on M. tuberculosis H37Rv ([9]; 7.5 μg/mL): Growth
- Effect on M. tuberculosis H37Rv ([9]; 10 μg/mL): Inhibition
- Effect on M. tuberculosis H37Rv ([9]; 15 μg/mL): Inhibition
- Effect on M. tuberculosis H37Rv ([9]; 20 μg/mL): Inhibition
- MIC ([9]; Mycobacterium tuberculosis, 336 h, H37Rv, 14 days): 10 µg/mL (≈ 33.3 µM)
